The values below come from US7235577B1 (priority 2000, dated 2007).

Read-outs that look alike come from different tables or passages of the source.

For one data set, the target named is human IKCa1 channel (Homo sapiens, UniProt O15554). In words: cell-based. The note with it: for IKCa1 inhibition compared with clotrimazole: refers to TABLE 8. Here is the method: COS-7 cells, maintained in Dulbecco's modified Eagle's medium (DMEM) containing 10% heat-inactivated fetal calf serum, 4 mM L-glutamine and 1 mM Na^+ pyruvate, were transiently transfected with hlKCa1.
Sequence of human IKCa1 channel (O15554 whole entry): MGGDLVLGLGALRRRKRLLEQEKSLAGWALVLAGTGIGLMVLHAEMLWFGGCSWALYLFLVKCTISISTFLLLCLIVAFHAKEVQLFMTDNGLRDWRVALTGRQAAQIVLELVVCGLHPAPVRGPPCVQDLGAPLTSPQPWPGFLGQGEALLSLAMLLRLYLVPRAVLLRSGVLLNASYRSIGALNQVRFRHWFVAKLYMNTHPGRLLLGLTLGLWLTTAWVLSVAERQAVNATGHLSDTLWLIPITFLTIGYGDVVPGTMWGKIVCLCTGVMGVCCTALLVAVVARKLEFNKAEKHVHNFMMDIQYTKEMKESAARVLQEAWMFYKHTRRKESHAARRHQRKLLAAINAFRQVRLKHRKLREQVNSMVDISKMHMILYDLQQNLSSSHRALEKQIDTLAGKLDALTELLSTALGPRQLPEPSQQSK
Electrophysiological experiments were carried out in the whole-cell configuration of the patch-clamp technique using an EPC-9 amplifier (HEKA Elektronik, Lambrecht Germany) interfaced to a computer running acquisition and analysis software (Pulse and Pulsfit; HEKA Elektronik). Pipettes were pulled from soft glass capillaries, coated with Sylgard (Dow-Corning, Midland, Mich.), and fire polished to resistances of 2.0–4.5 MΩ measured in the bath. COS-7 cells were trypsinized and plated on glass coverslips 3 h before measurement. […] To prevent activation of the native chloride channels in COS-7 cells an aspartate Ringer solution was used as an external solution (160 mM Na^+ aspartate, 4.5 mM KCl, 2 mM CaCl2, 1 mM MgCl2, 5 mM HEPES, adjusted to pH 7.4 with NaOH, with an osmolarity of 290–310 mosM). 200 ms voltage ramps from −120 mV to 40 mV every 10 s were used. The holding potential in all experiments was −80 mV. Series resistance compensation was not employed. The reduction of slope conductance at −80 mV was used to determine the Kd-value by fitting the values to the Hill equation with a Hill coefficient of unity.

Another data set deals with CYP3A4 (Homo sapiens, UniProt P08684). In words: in vitro. The note with it: human. Here is the method:
The test substances shown in Table 8 were evaluated for their inhibitory effect on the catalytic activity of human cytochrome P450 enzyme. Cytochrome P450 3A4 (CYP3A4) is involved in many drug-drug interactions and in many other pathways in the body including the catabolism of steroids and xenobiotics. Inhibition of this enzyme was measured in 96 well plates with 7-benzyloxy-4-trifluoro-methylcoumarin (BFC) as the substrate and cDNA-derived enzymes in microsomes prepared from baculovirus-infected insect cells.
The inhibition study consisted of the determination of inhibition by the test substance on CYP3A4 catalytic activity. […] The compounds were prepared as 10 mM stock solutions in acetonitrile. Metabolism of the model substrate was assayed by the production of 7-hydroxy-4-trifluoromethylcoumarin metabolite. The metabolite was detected by fluorescence.
Table 10 below provides a list of the name of enzymes examined, the catalog number of the microsomes used as a source of the enzyme, the concentration of the model substrate used, the amount of enzyme used, the final buffer concentration, and the positive control compound.
Assays were conducted in 96 well microtiter plates. The BFC substrate was initially prepared in acetonitrile. […] Six wells were used for one test. […] For the positive controls, 12 wells in a row were used for one test. The positive control inhibitor/enzyme combination was examined in duplicate rows. Wells 1 to 8 contained serial 1:3 dilutions of the inhibitors. The highest inhibitor concentration were as described in the table above. Wells 9 and 10 contained no inhibitor and wells 11 and 12 were blanks for background fluorescence (stop solution added before the enzyme).
After buffer, cofactors and inhibitor addition, the plates were pre-warmed to 37° C. Incubations were initiated by the addition of pre-warmed enzyme and substrate. The final cofactor concentrations were 1.3 mM NADP, 3.3 mM glucose-6-phosphate and 0.4 U/ml glucose-6-phosphate dehydrogenase. The final incubation volume was 0.2 ml. Incubations were carried out for 30 minutes [CYP3A4 (BFC)] and stopped by the addition of 0.075 ml of 80% acetonitrile-20% 0.5M Tris. Fluorescence per well was measured using a BMG FLUOstar fluorescence plate reader. The BFC metabolite 7-hydroxy-4-trifluoromethyl-coumarin was measured using an excitation wavelength of 410 nm and emission wavelength of 538 nm.

Setting [1] is: hIKCa1 in COS-7 cells, reduction of slope conductance at −80 mV, 1 μM free Ca++ in pipette.

Sequence of CYP3A4 (P08684 whole entry): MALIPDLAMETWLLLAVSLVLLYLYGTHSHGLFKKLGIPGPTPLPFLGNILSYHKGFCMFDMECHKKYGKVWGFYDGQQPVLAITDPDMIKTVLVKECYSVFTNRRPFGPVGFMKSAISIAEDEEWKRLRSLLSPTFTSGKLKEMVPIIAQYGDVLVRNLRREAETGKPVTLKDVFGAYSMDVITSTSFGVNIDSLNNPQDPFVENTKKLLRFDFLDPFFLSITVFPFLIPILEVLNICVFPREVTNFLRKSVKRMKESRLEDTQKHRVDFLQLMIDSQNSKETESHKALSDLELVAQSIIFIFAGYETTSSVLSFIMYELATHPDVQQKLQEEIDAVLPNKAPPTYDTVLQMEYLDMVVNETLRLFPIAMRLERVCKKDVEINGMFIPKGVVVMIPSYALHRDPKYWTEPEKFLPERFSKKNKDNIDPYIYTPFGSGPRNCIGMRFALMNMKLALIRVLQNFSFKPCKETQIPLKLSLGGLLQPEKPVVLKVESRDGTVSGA

As for `c1ccc(C(c2ccccc2)(c2ccccc2)n2cccc2)cc1` [Compound T10, 1-Trityl-1H-pyrrole], the melting point (usually the temperature of the solid-liquid transition) amounted to 243 °C. Further, the affinity on human IKCa1 channel, expressed as Kd, was 28 µM.
The compound `CC(=O)NC(c1ccccc1)(c1ccccc1)c1ccccc1C(F)(F)F` [Compound T83, N-(2-Trifluoromethylphenyl)diphenylmethyl acetamide] displayed a melting point of 185 °C. Also, on human IKCa1 channel, the Kd (as a rule, the constant that tells how readily two partners part at equilibrium) was 1.5 µM.
The corresponding values for `N#CC(c1ccccc1)(c1ccccc1)c1ccc(F)cc1` [Compound T27, 2-(4-Fluorophenyl)2,2-diphenylacetonitrile] are 76 °C and 0.8 µM.
The corresponding values for `OC(c1ccccc1)(c1ccccc1)c1cccc(Cl)c1` [Compound T2, (3-Chlorophenyl)diphenyl methanol] are 53 °C and 0.53 µM.
The corresponding values for `NC(=O)NC(c1ccccc1)(c1ccccc1)c1ccc(F)cc1` [Compound T31, N-[(4-Fluorophenyl)diphenylmethyl] urea] are 222 °C and 8 µM.
Compound `OC(c1ccccc1)(c1ccc(Cl)cc1)c1ccc(Cl)cc1` [Compound T4, Bis-(4-chlorophenyl)phenyl methanol] returned a melting point of 86 °C. Further, the “Kd for block of IKCa1” value on human IKCa1 channel (setting [1]) is “No effect at 1 μM”.
Take `OC(c1ccccc1)(c1ccccc1)c1ccccc1F` [Compound T36, (2-Fluorophenyl)diphenyl methanol]: the melting point came out at 116 °C. For the same compound, on human IKCa1 channel, binding was put at a Kd of 0.7 µM.
The corresponding values for `OC(c1ccccc1)(c1cccs1)c1cccs1` [Compound T35, Di-(2-thienyl)phenyl methanol] are 86 °C and 9 µM.
`c1ccc(C(NCc2ccc(CNC(c3ccccc3)(c3ccccc3)c3ccccc3)cc2)(c2ccccc2)c2ccccc2)cc1` [Compound T23, 1,4-Ditritylaminomethyl benzene] returned a melting point of 201 °C. Moreover, on human IKCa1 channel (setting [1]), the “Kd for block of IKCa1” value was “No effect at 1 μM”.
For `Clc1ccccc1C(Nc1ccncc1)(c1ccccc1)c1ccccc1` [Compound T67, N-[(2-Chlorophenyl)diphenylmethyl]-N-(4-pyridyl)amine], the inhibition (in general, the relative decrease from the control value, in per cent) at 30 min, 10 μM at CYP3A4 was determined as 74%. On human IKCa1 channel, this compound registered a Kd of 30 µM.
The corresponding values for `FC(F)(F)c1ccccc1C(c1ccccc1)(c1ccccc1)n1cccn1` [Compound T58, 1-{Diphenyl[2-(trifluoromethyl)-phenyl]methyl}-1H-pyrazole] are -26% and 5 µM.
With `OC(c1ccccc1)(c1ccccc1)c1ccc(F)cc1` [Compound T12, (4-Fluorophenyl)diphenyl methanol], the melting point came to 120.5 °C. Besides, binding on human IKCa1 channel was characterised by a dissociation constant (Kd) of 0.7 µM.
`N#CC(c1ccccc1)(c1ccccc1)c1ccccc1Cl` [Compound T39, 2-(2-Chlorophenyl)2,2-diphenylacetonitrile]: at CYP3A4, the inhibition at 30 min, 10 μM worked out at 10%. Besides, on human IKCa1 channel, binding was put at a Kd of 0.06 µM and the “IKCa1 inhibition compared with clotrimazole” value is recorded as “more potent inhibitors of IKCa1 channels than clotrimazole”.
Turning to `Clc1ccccc1C(NCCNC(c1ccccc1)(c1ccccc1)c1ccccc1Cl)(c1ccccc1)c1ccccc1` [Compound T48, N,N-1,2-[(2-Chlorophenyl)diphenylmethyl]-amino ethane], the melting point was 228 °C. The Kd on human IKCa1 channel came to 30 µM.
The corresponding values for `Clc1ccccc1C(NCCCNC(c1ccccc1)(c1ccccc1)c1ccccc1Cl)(c1ccccc1)c1ccccc1` [Compound T49, N,N-1,3-[(2-Chlorophenyl)diphenylmethyl]-amino propane] are 198 °C and 32 µM.
The compound `c1ccc(C(c2ccccc2)(c2ccccc2)n2cccn2)cc1` [Compound T11, 1-Trityl-1H-pyrazole] had a melting point of 202 °C. On human IKCa1 channel, this compound displayed a Kd of 2.5 µM.
Compound `OC(c1ccccc1)(c1ccccc1)c1ccc(Cl)cc1` [Compound T1, (4-Chlorophenyl)diphenyl methanol] had a melting point of 82 °C. In addition, the Kd on human IKCa1 channel is 0.55 µM.
For `OC(c1ccccc1)(c1ccccc1)c1cccs1` [Compound T9, (2-Thienyl)diphenyl methanol], the melting point came to 129 °C. In addition, binding at human IKCa1 channel was put at a Kd of 1.5 µM.
`NC(=O)NC(c1ccccc1)(c1ccccc1)c1ccc(Cl)cc1` [Compound T29, N-[(4-Chlorophenyl)diphenylmethyl] urea] yielded a melting point of 228 °C. The Kd at human IKCa1 channel was 15 µM.
The corresponding values for `CC(=O)NC(c1ccccc1)(c1ccccc1)c1ccccc1F` [Compound T76, N-(2-Fluorophenyl)diphenylmethyl acetamide] are 215 °C and 1.2 µM.
Consider `OC(c1ccccc1)(c1ccccc1)c1ccccc1Cl` [Compound T3, (2-Chlorophenyl)diphenyl methanol], for which the melting point came to 91 °C. Also, the inhibition at 30 min, 10 μM on CYP3A4 is -30.5%. At human IKCa1 channel, the Kd was found to be 0.52 µM.
With `N#CC(c1ccccc1)(c1ccccc1)c1ccccc1F` [Compound T40, 2-(2-Fluorophenyl)2,2-diphenylacetonitrile], the melting point was 144 °C. Moreover, the inhibition at 30 min, 10 μM on CYP3A4 came out at 9%. Also, at human IKCa1 channel, the Kd is 0.06 µM and the “IKCa1 inhibition compared with clotrimazole” value is listed as “more potent inhibitors of IKCa1 channels than clotrimazole”.
Regarding `c1ccc(C(c2ccccc2)(c2ccccc2)N2CCCC2)cc1` [Compound T7, 1-Tritylpyrrolidine], the melting point came to 126 °C. The compound also had an equilibrium dissociation constant (Kd) on human IKCa1 channel of 30 µM.
Turning to `Clc1ccccc1C(Nc1nccs1)(c1ccccc1)c1ccccc1` [Compound T66, N-[(2-Chlorophenyl)diphenylmethyl]-N-(1,3-thiazol-2yl)amine], the inhibition at 30 min, 10 μM on CYP3A4 was found to be 86.5%. On human IKCa1 channel, binding was put at a Kd of 15 µM.
Compound `NC(=O)NC(c1ccccc1)(c1ccccc1)c1ccccc1` [Compound T24, N-trityl urea] yielded a melting point of 238 °C. Moreover, the dissociation constant (Kd) at human IKCa1 channel turned out to be 8 µM.
The corresponding values for `NC(=O)NC(c1ccccc1)(c1ccccc1)c1ccccc1F` [Compound T45, N-[(2-Fluorophenyl)diphenylmethyl] urea] are 225 °C and 1 µM.
Consider `CCOC(=O)C(C(=O)OCC)C(c1ccccc1)(c1ccccc1)c1ccccc1` [Compound T74], for which the inhibition at 30 min, 10 μM at CYP3A4 worked out at 4%. In addition, at human IKCa1 channel (read-out: Kd for block of IKCa1, hIKCa1 in COS-7 cells, reduction of slope conductance at −80 mV, 1 μM free Ca++ in pipette), the Kd is 0.6 µM.
`CC(=O)NC(c1ccccc1)(c1ccccc1)c1ccccc1Cl` [Compound T75, N-(2-chlorophenyl)diphenylmethyl acetamide]: the inhibition at 30 min, 10 μM on CYP3A4 was -54%. On human IKCa1 channel, the Kd was 1.2 µM.
